Patent publication US9957325B2, “Synthetic antibody mimic peptides” (Formurex, Inc., priority 2015, dated 2018)
Read-outs that look alike come from different tables or passages of the source. Where a SMILES comes first, the peptide text is derived from it. The star is where a group is joined. X1 = CC[C@H](C)[C@@H]([C@@H](CC(=O)N1CCC[C@H]1[C@H](OC)[C@@H](C)C(=O)N[C@H](C)[C@@H](OC(=O)CCCCC(=NNC(=O)CCCCCN1C(=O)CC(*)C1=O)c1ccccc1)c1ccccc1)OC)N(C)C(=O)[C@@H](NC(=O)[C@H](C(C)C)N(C)C)C(C)C

Columns and labels:
[1] = tested on: HEK 293 cells; details: for IC50: HEK 293, 72 h, SRB
Procedure: (§1) Cells were cultured to 80% confluency in T75 culture flasks using Dulbecco's Modified Eagle's Medium (DMEM) as growth medium. The cell density was determined using a Coulter Counter. The cells were seeded onto 96 well plates and grown for 24 h. to 50% confluency. […] At the end of the incubation period, the cells were fixed using 10% trichloroacetic acid, followed by washing with distilled water and drying. The cellular proteins were stained using 50 μL of 0.4% sulforhodamine B (SRB) in 1% acetic acid. Unbound SRB was washed with 1% acetic acid and the plates were dried overnight. The cell-bound SRB was then solubilized using 200 μL of 10 mM unbuffered Tris base solution. SRB absorbance was measured at 560 nm wavelength using a Plate Reader. The percent viability of cells was plotted as a function of log concentration and data was analyzed in GraphPad Prism Version 5.0 software (GraphPad Software, Inc., California, USA) using a nonlinear-regression curve fit (variable slope four parameter equation).

[2] = tested on: A431 cells; details: for IC50: A431, 72 h, SRB; for more potent than the drug alone: EGFR over-expressing cancer cells (A431, MDA-MB-468), vs auristatin E
Procedure: as §1

[3] = tested on: MDA-MB-468 cells; assay: In vitro cytotoxicity, sulforhodamine B assay; type: cell-based; details: MDA-MB-468, 72 h, SRB
Procedure: as §1

[4] = molecular target: T1, HER2 recombinant human protein (Homo sapiens, UniProt P04626); assay: Surface plasmon resonance on immobilized HER2; type: binding; details: SPR
T1 construct: purchased Life Technologies / Thermo Fisher Scientific Inc
T1 sequence (P04626 23-1255): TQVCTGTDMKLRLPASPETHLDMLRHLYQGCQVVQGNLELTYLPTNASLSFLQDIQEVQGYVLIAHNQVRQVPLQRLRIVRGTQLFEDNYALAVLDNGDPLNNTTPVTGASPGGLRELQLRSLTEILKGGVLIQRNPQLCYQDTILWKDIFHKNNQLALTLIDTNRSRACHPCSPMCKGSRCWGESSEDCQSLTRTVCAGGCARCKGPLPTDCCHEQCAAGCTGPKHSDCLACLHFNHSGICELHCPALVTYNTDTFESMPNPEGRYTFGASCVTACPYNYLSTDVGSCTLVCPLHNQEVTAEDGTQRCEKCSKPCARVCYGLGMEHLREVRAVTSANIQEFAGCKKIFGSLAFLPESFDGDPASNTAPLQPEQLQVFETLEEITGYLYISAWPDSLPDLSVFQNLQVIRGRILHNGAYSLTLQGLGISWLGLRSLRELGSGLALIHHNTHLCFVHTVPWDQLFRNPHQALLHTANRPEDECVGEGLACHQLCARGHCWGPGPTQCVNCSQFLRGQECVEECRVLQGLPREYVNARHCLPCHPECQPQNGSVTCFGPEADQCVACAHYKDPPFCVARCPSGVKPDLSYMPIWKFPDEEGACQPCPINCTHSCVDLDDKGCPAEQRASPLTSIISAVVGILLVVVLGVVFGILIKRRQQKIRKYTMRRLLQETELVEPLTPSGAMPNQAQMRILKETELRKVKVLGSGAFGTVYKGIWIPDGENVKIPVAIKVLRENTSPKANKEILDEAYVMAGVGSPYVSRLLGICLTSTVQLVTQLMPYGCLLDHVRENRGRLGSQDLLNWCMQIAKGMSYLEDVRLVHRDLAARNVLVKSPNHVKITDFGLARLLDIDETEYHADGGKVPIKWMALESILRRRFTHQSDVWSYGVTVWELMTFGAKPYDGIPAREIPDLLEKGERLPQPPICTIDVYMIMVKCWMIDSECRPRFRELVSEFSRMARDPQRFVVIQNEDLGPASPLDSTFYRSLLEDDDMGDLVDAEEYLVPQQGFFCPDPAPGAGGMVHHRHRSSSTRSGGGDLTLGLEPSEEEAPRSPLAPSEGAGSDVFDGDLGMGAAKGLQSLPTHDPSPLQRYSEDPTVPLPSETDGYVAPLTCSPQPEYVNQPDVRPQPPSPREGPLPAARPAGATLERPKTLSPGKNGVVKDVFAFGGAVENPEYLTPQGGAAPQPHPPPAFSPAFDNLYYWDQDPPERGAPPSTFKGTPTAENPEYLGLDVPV
Procedure: All experiments were carried out at 25° C. with a data collection rate of 2 Hz. The running method was created using the Autolink control software. PBS with 0.01% Tween 20 (pH7.4) buffers were filtered and thoroughly degassed before use. HER2 recombinant human protein was covalently attached to the left channel of a 500,000 Da carboxymethylated dextran sensor chip using EDC and NHS chemistries. Then, the chip was blocked by passing EA for 8 minutes at a rate of 10 μL/min. […] Triplicate determinations were done at each concentration. The bound surface was regenerated by sequential injections of 10 mM glycine in PBST (pH 2.5).
The sensorgrams from SPR were globally treated using Scrubber 2® software where all traces were zeroed, cropped, aligned, and referenced. Kinetic constants ka and kd were determined by global fitting analyses of the titration curves using the 1:1 Lagmurian interaction model taking into account the mass transport. The equilibrium dissociation constant (KD) was calculated from the kd/ka ratio.

[5] = tested on: MDA-MB-361, ZR-75-1 and HEK293 cells; assay: Confocal microscopy binding of FITC labeled HER2-PEPs; type: cell-based; details: 10 μM FITC labeled peptide, 15 minutes at 37° C.
Procedure: MDA-MB-361, ZR-75-1 and […] cells were grown in T75 flasks at 37° C. and 5% CO2. Upon reaching 80% confluency, the cells were counted and seeded onto coverslips placed inside 6-well culture plates at a density of 80,000 cells/well. The cells were allowed to attach for 24 hours before the experiment was performed. Upon attachment, the cells were washed twice with HBSS and serum free media.
Stock solutions of FITC labeled HER2-PEPs and control peptide were prepared with dimethyl sulfoxide (DMSO). Stock solutions were diluted with serum free media medium several times and less than 1% of DMSO was presented in the final solutions of all peptides (10 μM), which were added to the 6-well culture plates.
After incubating 15 minutes at 37° C., the medium was removed and the cells were washed twice with HBSS. The cells were then treated with a 2.5 μg/mL solution of Alexa fluor 594 wheat germ agglutinin in HBSS for 10 minutes to stain the cell plasma membrane. The dye solution was removed and cells were washed twice with HBSS. The cells were then fixed by performing a 15 minute treatment using 4% paraformaldehyde solution prepared in HBSS. The cells were washed with HBSS followed by a final wash of distilled water. […] The FITC fluorescence was visualized using 491 nm and the Alexa fluor 594 fluorescence was visualized using 561 nm wavelength filter.

[6] = Peptide-drug conjugate pH hydrolysis study; type: physicochemical
Procedure: Peptide-drug conjugate was evaluated for half-life determination at pH 5 and 7.4. For this, a 1 mg/mL concentration of PDC was incubated in ammonium bicarbonate buffers, pH 5 and 7.4. Degradation of PDC was evaluated by calculating the area under the curve after 0, 0.5, 1, 2, 4, 6 and 48 hours using HPLC with a gradient method, with TEAA buffer pH 7 and acetonitrile.

[7] = molecular target: Recombinant human EGFR (Homo sapiens, UniProt P00533); assay: Surface plasmon resonance on immobilized EGFR; details: SPR, EGFR as immobilized surface, 1:1 binding model, 25° C.
Sequence of Recombinant human EGFR (P00533 25-1210): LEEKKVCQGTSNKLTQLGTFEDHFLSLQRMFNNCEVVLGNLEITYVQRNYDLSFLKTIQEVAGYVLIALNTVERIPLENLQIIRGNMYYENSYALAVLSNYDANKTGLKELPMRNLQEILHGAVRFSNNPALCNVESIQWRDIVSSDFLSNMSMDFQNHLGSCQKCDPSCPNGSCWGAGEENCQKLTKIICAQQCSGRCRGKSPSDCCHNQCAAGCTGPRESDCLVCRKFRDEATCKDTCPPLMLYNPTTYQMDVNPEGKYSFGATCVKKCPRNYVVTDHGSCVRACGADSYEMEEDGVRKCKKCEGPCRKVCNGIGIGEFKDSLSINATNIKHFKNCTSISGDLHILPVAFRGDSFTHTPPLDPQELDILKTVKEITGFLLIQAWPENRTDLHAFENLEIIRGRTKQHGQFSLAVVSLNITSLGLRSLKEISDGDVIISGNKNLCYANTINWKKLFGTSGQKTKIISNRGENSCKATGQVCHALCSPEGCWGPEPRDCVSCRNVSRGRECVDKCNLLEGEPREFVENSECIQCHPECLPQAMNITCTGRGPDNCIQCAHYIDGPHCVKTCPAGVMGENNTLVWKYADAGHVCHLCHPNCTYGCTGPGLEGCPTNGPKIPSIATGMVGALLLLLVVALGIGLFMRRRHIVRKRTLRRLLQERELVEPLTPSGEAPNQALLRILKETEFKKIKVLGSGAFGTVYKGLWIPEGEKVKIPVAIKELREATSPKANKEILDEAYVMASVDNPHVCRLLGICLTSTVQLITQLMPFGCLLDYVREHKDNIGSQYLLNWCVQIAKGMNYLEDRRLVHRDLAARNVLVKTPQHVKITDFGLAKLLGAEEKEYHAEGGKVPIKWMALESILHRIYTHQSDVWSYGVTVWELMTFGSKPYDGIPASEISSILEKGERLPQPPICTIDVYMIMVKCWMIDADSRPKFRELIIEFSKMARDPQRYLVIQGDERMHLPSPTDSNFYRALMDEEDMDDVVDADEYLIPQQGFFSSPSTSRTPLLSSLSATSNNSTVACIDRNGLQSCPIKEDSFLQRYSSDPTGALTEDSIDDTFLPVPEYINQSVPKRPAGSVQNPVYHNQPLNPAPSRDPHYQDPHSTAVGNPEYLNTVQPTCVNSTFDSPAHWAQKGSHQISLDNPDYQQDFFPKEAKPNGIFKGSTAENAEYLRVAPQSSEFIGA
Procedure: Binding affinity constant of antibody mimics was calculated by surface plasmon resonance (Reichert SR7000DC). A carboxymethyl dextran gold sensor chip was activated by N-hydroxysuccinimide (NHS) and N-ethyl-N″-[3-([…])propyl] carbodiimide (EDC) at 25° C. using phosphate buffered saline pH 7.4 with 0.05% tween 20 as running buffer. […] Unreactive sites were blocked by flowing over the chip 1 M ethanolamine pH 8.5 at 10 μL/min for 8 minutes. […] The resulting sensograms were globally fitted using Scrubber2 software (BioLogic Software, Campbell, Australia) in a 1:1 binding model to determine the association rate (kon), dissociation rate (kd or koff), and dissociation constant KD.

[8] = tested on: A431, MDA-MB-468 and HEK 293 cells; assay: Confocal binding/internalization of FITC labeled peptides; type: cell-based
Procedure: (§2) A431, MDA-MB-468 and HEK 293 cells were cultured in 75 cm^2 culture flasks in DMEM supplemented with 10% FBS. For binding/internalization studies, 5×10^5 cells were seeded in cover slips in 6 well culture plates overnight. After the medium was removed, the cells were washed with HBSS and then cells were treated with FITC labeled antibody mimic and scrambled (control) peptide in serum free DMEM for 30 minutes at 37° C. Cells were then washed with HBSS to remove any unbound peptides and incubated with AlexaFluor 594 wheat germ agglutinin to stain cell membranes. Cells were fixed with 4% paraformaldehyde and cover slips were mounted on slides which contain a drop of SlowFade®. Cells were then imaged with an inverted Leica DMIRE2 fluorescence microscope (Leica Biosystems Richmond Inc., Richmond, USA) using a Yokogawa CSUX1 confocal scanner unit. For flow cytometry studies, cells were washed with HBSS after incubation with antibody mimics, control peptide for 30 minutes, and dissociated using trypsin-EDTA. Cells were then centrifuged at 500 g for 5 min. Supernatant was removed and cell pellets were re-suspended in FACS solution. The cell suspension was then analyzed on a Beckman Coulter flow cytometer and data were analyzed using the Cell Questpro. A total of 10000 events were collected monitoring FITC.

[9] = tested on: MDA-MB-468 cells; assay: Flow cytometry uptake of FITC labeled peptides; type: cell-based
Procedure: as §2

[10] = tested on: A431 cells; assay: Flow cytometry uptake of FITC labeled peptides; type: cell-based
Procedure: as §2

CC[C@H](C)[C@@H]([C@@H](CC(=O)N1CCC[C@H]1[C@H](OC)[C@@H](C)C(=O)N[C@H](C)[C@@H](O)c1ccccc1)OC)N(C)C(=O)[C@@H](NC(=O)[C@H](C(C)C)N(C)C)C(C)C [Auristatin E, reference compound]
IC50 [1]: 0.0626 nM
IC50 [2]: 0.0246 nM
IC50 [3]: 0.0117 nM

CC(C)C[C@H](NC(=O)[C@H](Cc1ccccc1)NC(=O)CNC(=O)[C@H](C)NC(=O)[C@H](CC(=O)O)NC(=O)[C@H](CC(N)=O)NC(=O)[C@@H]1CCCN1C(=O)[C@H](Cc1ccc(O)cc1)NC(=O)CNC(=O)[C@H](CCC(N)=O)NC(=O)[C@@H]1CCCN1C(=O)[C@H](CO)NC(=O)[C@@H](N)[C@@H](C)O)C(=O)NCC(=O)N[C@@H](CCCNC(=N)N)C(=O)N[C@@H](CCC(=O)O)C(=O)N[C@@H](CO)C(=O)N[C@H](C(=O)N[C@@H](CC(N)=O)C(=O)O)[C@@H](C)O [HER2-Pep22] (H-TSPQGYPNDAGFLGRESTN-OH; N-terminus and C-terminus assumed)
KD higher than that of HER2-PEP11 and HER2-PEP21 [4]: about 2000 fold
kd ([4]; HER2 immobilized, 1:1 model, 25° C.): 0.0181 s⁻¹
kon ([4]; HER2 immobilized, 1:1 model, 25° C., read-out: ka): 131 M⁻¹ s⁻¹
binding to cells, confocal microscopy [5]: no binding to all the three cell lines

CC[C@H](C)[C@@H]([C@@H](CC(=O)N1CCC[C@H]1[C@H](OC)[C@@H](C)C(=O)N[C@H](C)[C@@H](OC(=O)CCCCC(=NNC(=O)CCCCCN1C(=O)CC(SC[C@H](NC(=O)[C@H](C)NC(=O)[C@H](CCC(=O)O)NC(=O)[C@H](Cc2ccc(O)cc2)NC(=O)[C@H](CC(=O)O)NC(=O)[C@H](Cc2ccc(O)cc2)NC(=O)[C@H](Cc2ccccc2)NC(=O)[C@@H](NC(=O)CNC(=O)[C@@H]2CCCN2C(=O)CNC(=O)[C@H](CC(N)=O)NC(=O)[C@H](CCC(=O)O)NC(=O)CNC(=O)[C@H](CO)NC(=O)[C@@H](N)Cc2c[nH]c3ccccc23)[C@@H](C)O)C(=O)O)C1=O)c1ccccc1)c1ccccc1)OC)N(C)C(=O)[C@@H](NC(=O)[C@H](C(C)C)N(C)C)C(C)C (some centres unmarked) [PDC] (H-WSGENGPGTFYDYEAC(X1)-OH; N-terminus and C-terminus assumed)
potency lower than drug alone ([1]; control cells (HEK 293), vs auristatin E): more than 100 fold
more potent than the drug alone [2]: approximately 10 fold
more potent than the drug alone ([2]; listed as Peptide-drug conjugate): around 10 fold
half-life at 1 mg/mL ([6]; pH 5, ammonium bicarbonate buffer): 2.8 h
half-life at 1 mg/mL ([6]; pH 7.4, ammonium bicarbonate buffer): > 48 h

C[C@H](NC(=O)[C@H](CCC(=O)O)NC(=O)[C@H](Cc1ccc(O)cc1)NC(=O)[C@H](CC(=O)O)NC(=O)[C@H](Cc1ccccc1)NC(=O)[C@H](Cc1ccc(O)cc1)NC(=O)CNC(=O)[C@@H]1CCCN1C(=O)CNC(=O)[C@H](CC(N)=O)NC(=O)[C@H](CCC(=O)O)NC(=O)CNC(=O)[C@H](CO)NC(=O)[C@@H](N)Cc1c[nH]c2ccccc12)C(=O)O [Pep6] (H-WSGENGPGYFDYEA-OH; N-terminus and C-terminus assumed)
koff [7]: 0.00581 s⁻¹
kon [7]: 1210 M⁻¹ s⁻¹

C[C@H](NC(=O)[C@H](CCC(=O)O)NC(=O)[C@H](Cc1ccc(O)cc1)NC(=O)[C@H](CC(=O)O)NC(=O)[C@H](Cc1ccc(O)cc1)NC(=O)[C@H](Cc1ccccc1)NC(=O)CNC(=O)[C@@H]1CCCN1C(=O)CNC(=O)[C@H](CC(N)=O)NC(=O)[C@H](CCC(=O)O)NC(=O)CNC(=O)[C@H](CO)NC(=O)[C@@H](N)Cc1c[nH]c2ccccc12)C(=O)O [Pep11] (H-WSGENGPGFYDYEA-OH; N-terminus and C-terminus assumed)
IC50 [1]: 1040 nM
lower potency towards control cells compared to cancer cells ([1]; HEK 293 vs cells that over-express EGFR): 2- to 3 fold
IC50 [2]: 388 nM
binding to cells after cetuximab pre-incubation ([8]; EGFR blocked by cetuximab for 30 min, A431 and MDA-MB-468): inhibited/decreased
IC50 [3]: 420 nM
Kd [7]: 252 nM
koff [7]: 0.0252 s⁻¹
kon [7]: 100000 M⁻¹ s⁻¹

C[C@H](NC(=O)[C@H](CCC(=O)O)NC(=O)[C@H](Cc1ccc(O)cc1)NC(=O)[C@H](CC(=O)O)NC(=O)[C@H](Cc1ccc(O)cc1)NC(=O)[C@H](Cc1ccccc1)NC(=O)[C@@H](NC(=O)CNC(=O)[C@@H]1CCCN1C(=O)CNC(=O)[C@H](CC(N)=O)NC(=O)[C@H](CCC(=O)O)NC(=O)CNC(=O)[C@H](CO)NC(=O)[C@@H](N)Cc1c[nH]c2ccccc12)[C@@H](C)O)C(=O)O [Pep22] (H-WSGENGPGTFYDYEA-OH; N-terminus and C-terminus assumed)
koff [7]: 0.0259 s⁻¹
kon [7]: 43500 M⁻¹ s⁻¹

C[C@H](N)C(=O)N[C@@H](CCC(=O)O)C(=O)N[C@@H](Cc1ccc(O)cc1)C(=O)N[C@@H](CC(=O)O)C(=O)N[C@@H](Cc1ccccc1)C(=O)N[C@@H](Cc1ccc(O)cc1)C(=O)NCC(=O)N1CCC[C@H]1C(=O)NCC(=O)N[C@@H](CC(N)=O)C(=O)N[C@@H](CCC(=O)O)C(=O)NCC(=O)N[C@@H](CO)C(=O)N[C@@H](Cc1c[nH]c2ccccc12)C(=O)O [Pep24] (H-AEYDFYGPGNEGSW-OH; N-terminus and C-terminus assumed)
koff [7]: 0.103 s⁻¹
kon [7]: 14300 M⁻¹ s⁻¹

SGEWAYDGYEPNFG (Synthetic amino acid - Control) [Pep25, scrambled peptide, negative control]
binding to cells, confocal fluorescence ([8]; FITC labeled peptide, 30 minutes at 37° C.): negligible binding
binding to cancer cell line, flow cytometry [9]: negligible binding
binding to cancer cell line, flow cytometry [10]: negligible binding
